Where two headings read alike, the source gives them in different places.
Tests used:
NET = conditions: cited from earlier work; for ORR: phase 3 trial
FGFR1 = FGFR1 (Homo sapiens, UniProt P11362); experiment: Compound A kinase selectivity profile; type: biochemical
TrkB = TrkB (Homo sapiens, UniProt Q16620); experiment: Compound A kinase selectivity profile; type: biochemical
278 other kinases = experiment: Compound A kinase selectivity profile; type: biochemical
VEGFR 2 = VEGFR 2 (Homo sapiens, UniProt P35968); experiment: Compound A kinase selectivity profile; type: biochemical
advanced solid tumors = experiment: Phase 1 clinical study: tumor response (RECIST Version 1.0); type: in vivo, human; conditions: total 77 patients
Procedure: Patients with neuroendocrine tumors (NETs) were enrolled with priority as preliminary efficacy was shown in these tumor types in the dose-escalation stage.
Tumor response (an exploratory endpoint) was assessed according to Response Evaluation Criteria in Solid Tumors (RECIST) Version 1.0 and measured at baseline, and at the end of every treatment cycle in the first 4 cycles and every other cycle thereafter. Patients with an initial assessment of complete response (CR) or partial response (PR) had to have the result confirmed by a repeat tumor assessment at least 4 weeks later. Calculations of the following parameters were made: objective response rate (ORR) (CR+PR); stable disease (SD) defined as ≥1 assessment of SD at least 6 weeks after study entry; disease control rate (DCR) (CR+PR+SD). Time to response (TTR), duration of response (DoR), and progression-free survival (PFS) were assessed in the subgroup of patients with NET.

Fms kinase = molecular target: T1, Fms kinase (Homo sapiens, UniProt P07333); experiment: CSF1R inhibition, [γ-33P-ATP] incorporation assay (Eurofins); type: biochemical
T1 construct: purchased Eurofins Pharma Discovery Services UK Ltd
Procedure: Inhibition of compound A on Fins was determined using […] incorporation assay carried by Eurofins Pharma Discovery Services UK Ltd. Fms kinase was incubated with 8 mM MOPS (3-(N-Morpholino)propanesulfonic acid sodium) pH 7.0, 0.2 mM EDTA ((Ethylenedinitrilo)tetraacetic acid disodium salt), 250 μM […] (a peptide), 10 mM MgAcetate and [γ-33P-ATP] (specific activity approx. 500 cpm/pmol, concentration as required). The reaction was initiated by the addition of the MgATP mix. After incubation for 40 minutes at room temperature, the reaction was stopped by the addition of 3% phosphoric acid solution. 10 μL of the reaction was then spotted onto a P30 filtermat and washed three times for 5 minutes in 75 mM phosphoric acid and once in methanol prior to drying and scintillation counting.

[1] = Phase 1 clinical study: toxicity, DLT and MTD assessments; type: in vivo, human; conditions: doses of 50-350 mg QD and 125-150 mg BID; up to 350 mg QD (formulation 2)
Procedure: During the dose-escalation phase, patients were given a single dose of compound A and monitored for adverse events (AEs) for 7 days. If no clinically significant toxicities were observed, patients could enter the 28-day dose-limiting toxicity (DLT) observation phase where they received compound A continuously for 28 days. DLTs were assessed at the end of the 28-day period. If no patients experienced a DLT during the 28-day period, the dose was escalated (FIG. 1). After the completion of the DLT observation phase, patients could continue compound A treatment at their current dose (if they were judged by the investigator to be benefiting from the treatment) until any of the withdrawal criteria (investigator's decision that withdrawal was in the patient's best interest, intolerable toxicity, disease progression) were met.
The study used a modified Fibonacci 3+3 dose-escalation design with at least three evaluable patients treated with each dose. In total, 12 dose cohorts were assessed (FIG. 1). […] If […] patients experienced a DLT, the MTD was considered exceeded and the previous lower dose would be re-assessed to determine the MTD. […]
Safety and tolerability were assessed in all patients who received at least one dose of study medication throughout the study. AEs were recorded throughout the study. […]

FLT3 = molecular target: T2, FLT3 (Homo sapiens, UniProt P36888); experiment: Compound A kinase selectivity profile; type: biochemical
T2 sequence (P36888 27-993): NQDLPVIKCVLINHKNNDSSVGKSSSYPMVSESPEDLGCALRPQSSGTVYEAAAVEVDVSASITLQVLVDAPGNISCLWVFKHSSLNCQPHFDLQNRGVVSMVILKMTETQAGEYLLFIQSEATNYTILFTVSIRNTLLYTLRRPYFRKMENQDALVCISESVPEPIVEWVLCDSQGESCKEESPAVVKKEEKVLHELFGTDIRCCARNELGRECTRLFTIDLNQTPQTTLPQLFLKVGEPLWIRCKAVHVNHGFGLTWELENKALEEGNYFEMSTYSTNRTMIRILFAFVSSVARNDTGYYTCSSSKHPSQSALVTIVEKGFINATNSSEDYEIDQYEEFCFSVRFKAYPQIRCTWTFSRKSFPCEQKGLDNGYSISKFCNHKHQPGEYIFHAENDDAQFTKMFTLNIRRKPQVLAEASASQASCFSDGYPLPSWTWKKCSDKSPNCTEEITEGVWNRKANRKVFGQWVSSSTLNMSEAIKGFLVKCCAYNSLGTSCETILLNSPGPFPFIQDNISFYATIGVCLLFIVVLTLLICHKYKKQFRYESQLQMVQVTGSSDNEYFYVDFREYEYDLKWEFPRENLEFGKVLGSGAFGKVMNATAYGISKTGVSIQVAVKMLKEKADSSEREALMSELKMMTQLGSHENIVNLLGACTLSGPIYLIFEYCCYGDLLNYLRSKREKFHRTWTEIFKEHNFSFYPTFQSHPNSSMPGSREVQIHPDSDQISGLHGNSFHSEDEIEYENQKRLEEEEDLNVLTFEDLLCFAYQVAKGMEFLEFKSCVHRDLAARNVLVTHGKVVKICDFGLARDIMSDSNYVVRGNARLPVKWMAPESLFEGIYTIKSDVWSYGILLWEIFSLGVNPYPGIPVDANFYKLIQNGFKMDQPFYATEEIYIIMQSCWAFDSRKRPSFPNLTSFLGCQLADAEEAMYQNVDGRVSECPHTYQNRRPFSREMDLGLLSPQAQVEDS

CSF1R = CSF1R (Homo sapiens, UniProt P07333); experiment: Compound A kinase selectivity profile; type: biochemical
VEGFR 1 = VEGFR 1 (Homo sapiens, UniProt P17948); experiment: Compound A kinase selectivity profile; type: biochemical
VEGFR 3 = VEGFR 3 (Homo sapiens, UniProt P35916); experiment: Compound A kinase selectivity profile; type: biochemical
VEGFR 3, sequence (P35916 25-1363): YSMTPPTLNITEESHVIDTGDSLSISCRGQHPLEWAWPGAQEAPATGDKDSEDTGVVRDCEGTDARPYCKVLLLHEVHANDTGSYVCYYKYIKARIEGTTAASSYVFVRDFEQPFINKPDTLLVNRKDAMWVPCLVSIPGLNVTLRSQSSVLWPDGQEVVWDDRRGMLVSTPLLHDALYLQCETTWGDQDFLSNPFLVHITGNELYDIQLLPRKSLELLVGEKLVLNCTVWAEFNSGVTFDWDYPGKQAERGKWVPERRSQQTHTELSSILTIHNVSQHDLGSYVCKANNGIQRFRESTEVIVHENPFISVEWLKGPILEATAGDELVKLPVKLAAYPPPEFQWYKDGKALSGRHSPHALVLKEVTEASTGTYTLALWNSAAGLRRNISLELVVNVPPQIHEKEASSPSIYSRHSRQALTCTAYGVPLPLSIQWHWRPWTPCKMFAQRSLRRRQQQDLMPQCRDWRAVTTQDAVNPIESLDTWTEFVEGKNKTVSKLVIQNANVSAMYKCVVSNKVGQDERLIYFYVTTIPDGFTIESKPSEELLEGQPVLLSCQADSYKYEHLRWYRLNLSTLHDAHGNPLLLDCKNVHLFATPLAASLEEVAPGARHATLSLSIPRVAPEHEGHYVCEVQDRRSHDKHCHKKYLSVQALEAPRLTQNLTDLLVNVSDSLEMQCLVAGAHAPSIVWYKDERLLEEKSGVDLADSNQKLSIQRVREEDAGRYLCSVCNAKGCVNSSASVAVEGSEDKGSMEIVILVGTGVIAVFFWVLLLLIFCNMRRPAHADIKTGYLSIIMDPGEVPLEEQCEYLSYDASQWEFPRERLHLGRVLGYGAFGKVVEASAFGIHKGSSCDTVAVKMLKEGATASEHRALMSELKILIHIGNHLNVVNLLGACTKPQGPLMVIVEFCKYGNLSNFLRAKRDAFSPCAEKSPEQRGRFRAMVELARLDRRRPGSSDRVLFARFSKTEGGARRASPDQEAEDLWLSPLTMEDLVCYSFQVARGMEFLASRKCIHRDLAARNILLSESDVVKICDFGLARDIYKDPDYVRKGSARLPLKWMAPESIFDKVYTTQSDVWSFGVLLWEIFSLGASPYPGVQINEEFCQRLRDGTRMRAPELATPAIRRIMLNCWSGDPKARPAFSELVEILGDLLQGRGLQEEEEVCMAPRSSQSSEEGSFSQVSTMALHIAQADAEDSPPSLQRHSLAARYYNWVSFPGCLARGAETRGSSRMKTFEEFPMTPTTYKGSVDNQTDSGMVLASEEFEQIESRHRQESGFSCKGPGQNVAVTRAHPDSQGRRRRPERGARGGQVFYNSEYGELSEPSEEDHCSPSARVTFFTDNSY

T1 sequence (P07333 20-972): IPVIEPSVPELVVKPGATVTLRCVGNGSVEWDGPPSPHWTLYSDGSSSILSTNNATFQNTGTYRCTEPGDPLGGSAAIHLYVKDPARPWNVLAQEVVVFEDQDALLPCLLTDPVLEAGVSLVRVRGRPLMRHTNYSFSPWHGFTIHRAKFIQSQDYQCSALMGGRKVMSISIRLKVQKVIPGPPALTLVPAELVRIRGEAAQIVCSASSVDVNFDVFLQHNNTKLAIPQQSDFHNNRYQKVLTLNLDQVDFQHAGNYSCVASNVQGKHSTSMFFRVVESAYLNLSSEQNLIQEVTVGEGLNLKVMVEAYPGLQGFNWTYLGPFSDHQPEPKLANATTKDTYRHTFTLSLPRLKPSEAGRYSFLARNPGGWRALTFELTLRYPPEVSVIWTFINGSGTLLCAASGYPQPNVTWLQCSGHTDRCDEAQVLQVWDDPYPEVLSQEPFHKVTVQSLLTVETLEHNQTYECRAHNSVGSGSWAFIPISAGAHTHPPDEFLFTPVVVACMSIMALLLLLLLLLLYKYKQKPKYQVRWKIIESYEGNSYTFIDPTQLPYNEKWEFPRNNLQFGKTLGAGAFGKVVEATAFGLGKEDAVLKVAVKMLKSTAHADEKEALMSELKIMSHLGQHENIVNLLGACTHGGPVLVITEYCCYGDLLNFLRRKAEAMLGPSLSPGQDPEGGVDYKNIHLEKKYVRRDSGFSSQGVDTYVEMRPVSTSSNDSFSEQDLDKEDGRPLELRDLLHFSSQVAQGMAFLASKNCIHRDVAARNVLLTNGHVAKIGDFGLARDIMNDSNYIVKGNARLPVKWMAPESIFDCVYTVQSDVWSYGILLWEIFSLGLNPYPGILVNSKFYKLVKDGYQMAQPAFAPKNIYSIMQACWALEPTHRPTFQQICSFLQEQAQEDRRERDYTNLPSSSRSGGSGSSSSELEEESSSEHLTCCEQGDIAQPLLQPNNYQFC
VEGFR 1, sequence (P17948 27-1338): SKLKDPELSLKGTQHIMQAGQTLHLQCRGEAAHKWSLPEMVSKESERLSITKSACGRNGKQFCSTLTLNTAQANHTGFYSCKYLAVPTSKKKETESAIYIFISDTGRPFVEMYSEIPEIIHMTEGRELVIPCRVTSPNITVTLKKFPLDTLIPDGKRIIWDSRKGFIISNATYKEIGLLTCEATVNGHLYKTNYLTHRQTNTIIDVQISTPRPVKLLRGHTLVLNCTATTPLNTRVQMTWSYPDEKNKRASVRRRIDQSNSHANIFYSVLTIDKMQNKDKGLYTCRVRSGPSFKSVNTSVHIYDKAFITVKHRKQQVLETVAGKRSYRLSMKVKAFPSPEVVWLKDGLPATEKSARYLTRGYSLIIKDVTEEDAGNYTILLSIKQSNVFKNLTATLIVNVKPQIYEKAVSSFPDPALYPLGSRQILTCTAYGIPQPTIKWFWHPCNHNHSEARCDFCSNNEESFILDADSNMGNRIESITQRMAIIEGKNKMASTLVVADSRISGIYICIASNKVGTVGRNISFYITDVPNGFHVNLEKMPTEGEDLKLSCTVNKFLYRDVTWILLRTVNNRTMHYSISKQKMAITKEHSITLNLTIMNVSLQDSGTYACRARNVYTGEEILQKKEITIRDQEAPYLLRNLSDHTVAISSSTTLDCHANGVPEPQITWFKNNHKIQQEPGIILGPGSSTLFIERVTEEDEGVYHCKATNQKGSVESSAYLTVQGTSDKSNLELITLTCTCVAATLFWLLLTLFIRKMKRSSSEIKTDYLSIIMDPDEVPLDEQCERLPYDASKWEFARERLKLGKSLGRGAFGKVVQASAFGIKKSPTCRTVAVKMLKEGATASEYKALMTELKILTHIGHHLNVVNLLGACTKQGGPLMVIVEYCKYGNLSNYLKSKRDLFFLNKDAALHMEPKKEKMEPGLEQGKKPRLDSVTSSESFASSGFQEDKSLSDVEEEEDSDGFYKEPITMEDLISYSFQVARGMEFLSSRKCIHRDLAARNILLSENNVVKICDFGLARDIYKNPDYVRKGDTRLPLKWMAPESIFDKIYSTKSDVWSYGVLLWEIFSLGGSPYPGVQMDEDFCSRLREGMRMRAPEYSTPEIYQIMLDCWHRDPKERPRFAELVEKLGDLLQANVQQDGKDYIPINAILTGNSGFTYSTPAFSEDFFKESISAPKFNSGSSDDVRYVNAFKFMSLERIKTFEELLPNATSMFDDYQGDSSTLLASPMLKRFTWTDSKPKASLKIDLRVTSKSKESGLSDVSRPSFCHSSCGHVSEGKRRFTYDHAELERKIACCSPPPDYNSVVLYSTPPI
FGFR1, sequence (P11362 22-822): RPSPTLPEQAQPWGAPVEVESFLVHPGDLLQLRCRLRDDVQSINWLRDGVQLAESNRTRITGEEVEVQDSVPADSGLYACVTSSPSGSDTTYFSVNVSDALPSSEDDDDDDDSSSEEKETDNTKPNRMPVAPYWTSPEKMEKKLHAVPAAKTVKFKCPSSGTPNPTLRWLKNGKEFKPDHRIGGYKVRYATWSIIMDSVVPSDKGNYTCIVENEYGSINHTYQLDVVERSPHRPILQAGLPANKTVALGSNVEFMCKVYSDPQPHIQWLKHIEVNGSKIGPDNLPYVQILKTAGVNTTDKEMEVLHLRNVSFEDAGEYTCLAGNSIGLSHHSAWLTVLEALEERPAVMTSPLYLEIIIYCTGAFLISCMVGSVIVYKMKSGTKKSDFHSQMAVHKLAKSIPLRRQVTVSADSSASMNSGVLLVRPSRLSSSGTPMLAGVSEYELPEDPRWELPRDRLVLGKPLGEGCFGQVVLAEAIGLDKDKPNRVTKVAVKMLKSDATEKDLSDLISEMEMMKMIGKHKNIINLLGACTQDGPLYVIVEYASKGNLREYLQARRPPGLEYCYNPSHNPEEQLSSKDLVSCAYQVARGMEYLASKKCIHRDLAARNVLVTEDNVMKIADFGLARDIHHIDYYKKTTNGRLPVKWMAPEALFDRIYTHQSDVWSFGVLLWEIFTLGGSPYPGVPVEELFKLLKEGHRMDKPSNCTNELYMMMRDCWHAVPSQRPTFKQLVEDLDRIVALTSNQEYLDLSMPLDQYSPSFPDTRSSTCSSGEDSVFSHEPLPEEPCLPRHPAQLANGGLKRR
CSF1R, sequence (P07333 20-972): as the sequence (P07333 20-972) above

CO[C@H]1C[C@@H]2CC[C@@H](C)[C@@](O)(O2)C(=O)C(=O)N2CCCC[C@H]2C(=O)O[C@H]([C@H](C)C[C@@H]2CC[C@@H](OCCO)[C@H](OC)C2)CC(=O)[C@H](C)/C=C(\C)[C@@H](O)[C@@H](OC)C(=O)[C@H](C)C[C@H](C)/C=C/C=C/C=C/1C [everolimus]
ORR (NET; GI and lung NET): 2%
ORR (NET; pancreatic NET): 5%
median PFS (NET; phase 3 trials): approximately 11 months

Cc1cc2cc(Oc3ccnc(Nc4cccc(CS(=O)(=O)NCCN(C)C)c4)n3)ccc2[nH]1 [Compound A, N-(2-(dimethylamino)ethyl)-1-(3-((4-((2-methyl-1H-indol-5-yl)oxy)pyrimidin-2-yl)amino)phenyl)-methanesulfonamide]
IC50 (FGFR1): 0.015 µM
IC50 (TrkB): 0.041 µM
IC50 (278 other kinases): > 0.15 µM
IC50 (VEGFR 2): 0.024 µM
patients with confirmed PR (advanced solid tumors): nine
IH (%) (Fms kinase; 0.0001 μM): −3%
IH (%) (Fms kinase; 0.0003 μM): 3%
IH (%) (Fms kinase; 0.001 μM): 15%
IH (%) (Fms kinase; 0.003 μM): 38%
IH (%) (Fms kinase; 0.01 μM): 72%
IH (%) (Fms kinase; 0.03 μM): 86%
IH (%) (Fms kinase; 0.1 μM): 94%
IH (%) (Fms kinase; 0.3 μM): 98%
IH (%) (Fms kinase; 1 μM): 98%
MTD (maximum tolerated dose) [1]: not reached
IC50 (FLT3): 0.067 µM
IC50 (CSF1R): 0.004 µM
IC50 (VEGFR 1): 0.002 µM
IC50 (VEGFR 3): 0.001 µM

Reference: patent US20190276439A1, “METHOD OF TREATING SOLID TUMORS” (priority 2016, published 2019)
